Laboratory results reported in EP4632836A1, “BATTERIES FOR OPERATION ACROSS TEMPERATURES AND RELATED METHODS” (Massachusetts Institute of Technology, priority 2024, dated 2025).

Assay: Electrode soaking test in electrolyte (coloration of electrolyte)
Assay type: physicochemical
Settings: electrodes with 90 wt.% of TAQ soaked in 2 mL of 1 M LiTFSI in DOL/DME (1/1 vol.%), -20 °C to 70 °C, 24 hours; no coloration of electrolyte
Text: The high-temperature performance of organic cathode materials for LIBs depends on the solubility of the active materials in organic electrolytes as dissolution leads to rapid capacity decay, dramatically reducing the cycling lifetime. On the other hand, the performance of LIBs at low temperatures is heavily dependent on the charge transport and transfer resistance, as well as the solid-state Li^+ diffusion resistance of the electrode. The solubility of TAQ electrodes and deeply lithiated TAQ (Lix-TAQ, 3<x<4) electrodes in a commercially available electrolyte (1 M LiTFSI in DOL/DME (1/1 vol.%)) under various temperatures was evaluated (FIGS. 24C and 31). […] The electrodes were soaked in 2 mL of electrolyte, and kept under various temperatures ranging from -20 °C to 70 °C for 24 hours. […] This insolubility stems from strong intermolecular hydrogen bonding between TAQ molecules and interlayer π- π stacking, which both persist even upon deep lithiation.

solubility of electrodes: complete insolubility
Compound: Nc1c(N)c(=O)c2[nH]c3c(=O)c(N)c(N)c(=O)c3[nH]c2c1=O [TAQ, bis-tetraaminobenzoquinone]
